In US7285618B1, “Polypeptides having neutrophil stimulating activity” (Japan Tobacco Inc., priority 2000, dated 2007):
Like-named read-outs stand apart in the source and are kept apart here. Where a SMILES comes first, the peptide text is derived from it. Where no end group is shown, it is not given here. The star is where a group is joined. For = O=C*

What was measured:
[1] = system: differentiated HL60 cells; assay: Intracellular Ca2+ concentration (fura-2), differentiated HL60 cells; type: cell-based, human; conditions: differentiated HL60 cells (+)
Experimental: (§1) The differentiated HL60 cells or undifferentiated HL60 cells were washed twice with a Hepes-Na solution (140 mM NaCl, 4 mM KCl, 1 mM NaH2PO4, 1 mM MgCl2, 1.25 mM CaCl2, 5 mM Hepes, 11 mM glucose, 0.2% BSA, pH 7.4). Then, Ca^2+ sensitive fluorescence reagent, fura-2/AM, was added to the cell suspension (4 ml: final concentration, 4 μM). The reaction mixture was then shaken gently at room temperature for 60 minutes, shielded from light in order to incorporate fura-2 into the HL60 cells. Subsequently, the cells were washed twice with a Hepes-Na solution and a cell suspension was prepared at a final cell density of 1.0×10^6 cells/ml. One milliliter of the cell suspension was put into reaction cuvettes and stimulated with various samples under stirring at 30° C. Ratios of fluorescence intensity at 500 nm (F) for an excitation wavelength at 340 nm to that at 380 nm were measured with a fluorimeter (CAF-100, Japan Spectroscopic Co., Ltd.) and [Ca^2+]i was calculated following the formula: [Ca^2+]i(nM)=K×{(F−Fmin)/(Fmax−F)}×A/B, wherein
(§2) Fmax: a ratio of fluorescence intensity at 500 nm for an excitation wavelength at 340 nm to that at 380 nm after all cells were solubilized with 0.1% Triton X-100;
(§3) Fmin: a ratio of fluorescence intensity at 500-nm for an excitation wavelength at 340 nm to that at 380 nm after the whole calcium was chelated with 4 mM EGTA;
(§4) A: fluorescence intensity at 500-nm for an excitation wavelength at 380 nm, when all the calcium was chelated with EGTA;
(§5) B: fluorescence intensity at 500-nm for an excitation wavelength at 380 nm, when all cells were solubilized with Triton X-100;
(§6) K: 224 (nM) (the dissociation constant of fura-2).

[2] = system: undifferentiated HL60 cells; assay: Intracellular Ca2+ concentration (fura-2), undifferentiated HL60 cells; type: cell-based, human
Experimental: as §1, §2, §3, §4, §5, §6

[3] = system: differentiated HL60 cells; type: cell-based, human; conditions: for activity of promoting β-HA secretion / activity for β-HA secretion compared with COSP-1 and fCyt b (1-15): differentiated HL60 cells; for activity of promoting β-HA secretion: Example 12; for activity for β-HA secretion compared with COSP-1 and fCyt b (1-15): human homologues; for β-HA secretion from differentiated HL60 cells (%/total): total = β-HA released with 0.05% Triton X-100
Experimental: a. Cultivation of HL60 Cells and Induction to the Differentiated Neutrophil-Like Cells For cultivation, heat-inactivated FCS (final concentration; 10%), streptomycin (final concentration; 100 mg/l), penicillin G (final concentration of 10^5 units/l) and RPMI-1640 culture solution containing 10 mM Hepes (pH 7.4) were used. Cells were cultivated at a cell density of 2×10^5-1.5×10^6 cells/ml in a plastic flask (80 cm^2, 260 ml, Nunc) at 37° C. under stationary conditions with a 5% of CO2 concentration and a 100% of humidity. […] c. […] Measuring β-HA Enzyme Activity The amount of β-HA secreted into the reaction supernatant was determined by measuring the absorbance at 415 nm of p-nitrophenol that was generated by an enzymatic reaction involving p-nitrophenyl N-acetyl-β-D-glucosaminide as a substrate. To be specific, 90 μl of the reaction supernatant was transferred to a 96-well Immuno plate (Nunc) and 60 μl of a substrate solution (10 mM p-nitrophenyl N-acetyl-β-D-glucosaminide/40 mM citrate, 70 mM Na2HPO4, pH 4.5) was added to initiate an enzymatic reaction. Following a 1-hr reaction at 37° C., 100 μl of a reaction quencher (400 mM glycine, pH 10.7) was added to stop the reaction and the absorbance at 415 nm was measured. As a control, cells were treated with Triton X-100 at a final concentration of 0.05% and the amount of β-HA in the supernatant was measured. As another control, the amount of β-HA secreted from cells upon stimulation with fMLP at a final concentration of 10 μM was measured.

[4] = system: differentiated HL60 cells
Experimental: (§10) The differentiated HL60 cells and human leukocyte cells were washed three times with ice-cooled 0.1% BSA containing Hepes buffered Hank's solution (HBHS; 10 mM Hepes, 136.9 mM NaCl, 5.4 mM KCl, 1.2 mM CaCl2, 0.44 mM KH2PO4, 0.49 mM MgCl2, 0.41 mM MgSO4, 0.34 mM Na2HPO4, 5.5 mM glucose, 4.2 mM NaHCO3, pH 7.4). A cell suspension was prepared for each cell type at 5.5×10^6 cells/ml. Cytochalasin B and DNase I were then added to each cell suspension at a final concentration of 5 μg/ml. Ninety μl of each cell suspension was then transferred to an ice-cooled tube (5.0×10^5 cells/tube) and incubated at 37° C. for 10 minute. To each tube, either one of the fractions of polypeptide (or extract) in solution (10 μl) was added and incubated at 37° C. for 10 minutes to stimulate the cells. Immediately after the treatment, 200 μl of ice-cooled reaction quenching buffer (25 mM Tris, 123 mM NaCl, 2.7 mM KCl, pH 7.4) was added to the cell suspensions to stop the stimulation. Thereafter, the tubes were spun down at 4° C. for 60 seconds to precipitate the cell pellets and the β-HA activity and the lactate dehydrogenase (LDH) activity in the supernatant were measured.
(§11) The amount of LDH secreted into the reaction mixture was determined by measuring the absorbance (340 nm) of NADH generated by reduction of that NAD involves dehydrogenation of lactate. Reaction was initiated by adding a 400 μl of a substrate-buffer solution (125 mM 2-amino-2-methyl-1-propanol, 125 mM lithium lactate, 6.25 mM NAD, pH 9.5) to a 100 μl of the reaction supernatant. Following a 1-hr incubation at 37° C., the mixture was quenched in ice water to stop the reaction and the absorbance at 340 nm was measured.
(§12) The LDH enzyme activity secreted in the reaction mixture was expressed as the percentage of the total enzyme activity in cells (%/total) which was the enzyme activity of LDH released upon disruption of the cells with 0.05% Triton X-100.

[5] = system: differentiated HL60 cells; assay: LDH leakage from HL60 cells; conditions: differentiated HL60 cells, Example 4
Experimental: as §10, §11, §12

[6] = system: differentiated HL60 cells; assay: Migration promoting activity (Chemotaxis Cells), differentiated HL60 cells; type: cell-based, human; conditions: for activity for migration at the concentrations where β-HA secretion was observed / concentrations of migration activity relative to the concentration for β-HA secretion: Example 12
Experimental: (§7) The migration promoting activity of each of the polypeptides of interest was measured using Chemotaxis Cells (Kurabo) as follows: The differentiated HL60 cells or undifferentiated HL60 cells were washed three times with ice-cooled HBHS and a cell suspension was prepared at a cell density of 4×10^6 cells/ml. The cell suspension was incubated at 37° C. for 10 minutes; thereafter, 500 μl of the cell suspension was transferred to Chemotaxis Cells (2×10^6 cells/Cell), which were put on a micro-well plate filled with pre-heated (37° C.) HBHS containing 1 ml of polypeptide and incubation was performed at 37° C. for 1 hour. Then, the Chemotaxis Cells were removed from the plate and the number of cells that had migrated in each well was counted.
(§8) Migration promoting activity was expressed by a chemotaxis index, or the number of cells that migrated upon stimulation was divided by the number of cells migrated without stimuli.
(§9) The activity of the human homologues of COSP-1 and fCyt b (1-15) for promoting β-HA secretion and migration promoting activities were measured following the methods described in Examples 4 and 5, respectively. The activity for β-HA secretion was expressed by the percentage for the maximum amount of secretion upon stimulation with 10 μM of fMLP, whereas the activity for migration was expressed by a chemotaxis index, i.e., the ratio of the number of stimulated migrating cells to that of unstimulated migrating cells.

[7] = system: undifferentiated HL60 cells; assay: Migration promoting activity (Chemotaxis Cells), undifferentiated HL60 cells; type: cell-based, human
Experimental: as §7, §8
The activity of the human homologues of COSP-1 and fCyt b (1-15) for promoting β-HA secretion and migration promoting activities were measured following the methods described in Examples 4 and 5, respectively. […]

[8] = system: undifferentiated HL60 cells; assay: β-HA secretion from undifferentiated HL60 cells (Example 12); type: cell-based, human; conditions: data not shown
Experimental: as §9

| Molecule | activity of promoting β-HA secretion [3] | activity for β-HA secretion compared with COSP-1 and fCyt b (1-15) [3] | β-HA secretion from differentiated HL60 cells (%/total) [3] | migration promoting (attracting) activity [6] | activity for migration at the concentrations where β-HA secretion was observed [6] | concentrations of migration activity relative to the concentration for β-HA secretion [6] | migration promoting activity [7] | activity of promoting β-HA secretion [8] | also measured |
| --- | --- | --- | --- | --- | --- | --- | --- | --- | --- |
| Nc1ncnc2c1ncn2[C@@H]1O[C@H](COP(=O)(O)OP(=O)(O)OP(=O)(O)O)[C@@H](O)[C@H]1O [ATP] | – | – | – | – | – | – | – | – | intracellular Ca2+ concentration [1]: increased; intracellular Ca2+ concentration [2]: increased |
| CC[C@H](C)[C@H](NC(=O)[C@H](CC(N)=O)NC(=O)[C@@H](NC(=O)[C@H](CCSC)NC=O)[C@@H](C)O)C(=O)N[C@@H](CCCNC(=N)N)C(=O)N[C@@H](CCCCN)C(=O)N[C@@H](CO)C(=O)N[C@@H](Cc1c[nH]cn1)C(=O)N1CCC[C@H]1C(=O)N[C@@H](CC(C)C)C(=O)N[C@@H](CCSC)C(=O)N[C@@H](CCCCN)C(=O)N[C@H](C(=O)N[C@H](C(=O)N[C@@H](CC(N)=O)C(=O)O)[C@@H](C)CC)[C@@H](C)CC [fCyt b (1-15), fMet-Thr-Asn-Ile-Arg-Lys-Ser-His-Pro-Leu-Met-Lys-Ile-Ile-Asn] (For-MTNIRKSHPLMKIIN-OH) | – | – | – | – | – | – | – | – | EC50 [3]: 38 ± 3.4 nM |
| CC[C@H](C)[C@H](NC(=O)[C@H](CC(N)=O)NC(=O)[C@@H](NC(=O)[C@H](CCSC)NC=O)[C@@H](C)O)C(=O)N[C@@H](CCCNC(=N)N)C(=O)N[C@@H](CCCCN)C(=O)N[C@@H](CO)C(=O)N[C@@H](Cc1cnc[nH]1)C(=O)N1CCC[C@H]1C(=O)N[C@@H](CC(C)C)C(=O)N[C@@H](CCSC)C(=O)N[C@@H](CCCCN)C(=O)N[C@H](C(=O)N[C@H](C(=O)N[C@@H](CC(N)=O)C(=O)O)[C@@H](C)CC)[C@@H](C)CC [fCyt b (1-15), fMet-Thr-Asn-Ile-Arg-Lys-Ser-His-Pro-Leu-Met-Lys-Ile-Ile-Asn] (For-MTNIRKSHPLMKIIN-OH) | – | – | – | – | – | – | – | – | LDH leakage out of the cells [4]: no LDH was found to leak out |
| MTNIRKSHPLMKIIN [Cyt b (1-15)] | – | – | – | – | – | – | – | – | LDH leakage out of the cells [5]: no LDH was found to leak out |
| VTFLLPAGWILSHLETYRRPE [Human COSP-1] | showed the activity | comparable | 53.5 %/total | showed the activity | desensitized | observed at concentrations lower | not observed | not observed | – |
| fMet-Thr-Pro-Met-Arg-Lys-Ile-Asn-Pro-Leu-Met-Lys-Leu-Ile-Asn (For-MTPMRKINPLMKLIN; listed as Homo sapiens) [Human fCyt b (1-15)] | showed the activity | comparable | 65.9 %/total | showed the activity | desensitized | observed at concentrations lower | not observed | not observed | – |
